{"source": "patent US12083168B2", "about": "“Treatment and detection of inherited neuropathies and associated disorders” (University of Miami, priority 2019, dated 2024)", "key": {"[1]": {"system": "aldose reductase (AR) (AKR1B1 gene)", "experiment": "Knock-down of aldose reductase by antisense oligonucleotide, Western blot normalized to β-tubulin", "format": "cell-based, Homo sapiens", "conditions": "SORD patient fibroblast and control fibroblasts; scrambled ASO (AR-S 1A) as control", "procedure": "FIGS. 15A-15D. […] This was carried out in a SORD patient fibroblast and control fibroblasts and normalized to β-tubulin and measured via Western blot (FIGS. 15C-15D).\nFibroblasts were lysed in RIPA buffer (ThermoFisher) containing protease inhibitor (Roche) and sonicated for 5 minutes with the Bioruptor sonication device (Diagenode). Cell lysates were centrifuged at 13,000×g for 10 minutes at 4° C., and the supernatant was collected for protein quantification (Pierce BCA Protein Assay Kit). 30 μg of protein sample was mixed with Bolt LDS Sample Buffer and Sample Reducing Agent (ThermoFisher) and heated at 90° C. for 5 min. Samples were loaded on Bolt 4-12% Bis-Tris Plus mini-gel followed by transfer into a nitrocellulose membrane (Bio-Rad). Membrane was blocked with 5% non-fat milk and incubated with anti-SORD (ab189248, Abcam) antibody for 2 hours, washed with TBS containing 0.01% Tween 20 (Bio-Rad) and incubated with a secondary anti-rabbit antibody (Cell Signaling). Membrane was subsequently incubated with GAPDH primary antibody (Santa Cruz) and secondary anti-mouse antibody (Cell Signaling). Chemoluminescence detection was performed with the SuperSignal West Pico PLUS Chemiluminescent Substrate and imaged with the FluorChem E (ProteinSimple)."}, "[2]": {"system": "flies with neuronal specific knockdown of both Sodh1 and Sodh2", "experiment": "Locomotor activity (negative geotaxis assay), Sodh1 and Sodh2 double knockdown flies", "format": "in vivo, Drosophila melanogaster", "conditions": "neuronal specific knockdown of Sodh1 and Sodh2, 80 μM in food, vs yw control flies", "procedure": "FIG. 7. Treatment with aldose reductase inhibitors Epalrestat and Ranirestat restore locomotor function in Sodh1 and Sodh2 double knockdown flies. Locomotor activity of control flies (yw) feeding with DMSO (dots, first data point from the left for each DAE point indicated), or flies with neuronal specific knockdown of Sodh1 and Sodh2 feeding with DMSO (squares, second data point from the left for each DAE point indicated), 80 μM Epalrestat (squares, third data point from the left for each DAE point indicated), or 80 μM Ranirestat (squares, forth data point from the left for each DAE point indicated). n=10 in each group. Data are presented as mean±s.d. Statistical analysis was performed using Two-Way ANOVA followed by post-hoc Tukey's multiple comparison test. ***P<0.001, ****P<0.0001. […] Equal amount of DMSO was mixed into the fly food as control. The vials were dried at room temperature for 12 h before feeding. For lifespan assay, 100 newly enclosed female flies of each group were collected and placed in vials of 20 individuals. Flies were transferred into new vials every 2 days and the number of dead flies was counted. Survival data was plotted using Kaplan-Meier plot and compared between groups using log-rank test. […] Flies that crossed the 8 cm line were counted. […]"}, "[3]": {"system": "Sodh2MB01265/MB01265 flies", "experiment": "Locomotor activity (negative geotaxis assay), Sodh2 mutant flies", "format": "in vivo, Drosophila melanogaster", "conditions": "80 μM in food, vs yw control flies", "procedure": "[…] Equal amount of DMSO was mixed into the fly food as control. The vials were dried at room temperature for 12 h before feeding.\nFor lifespan assay, 100 newly enclosed female flies of each group were collected and placed in vials of 20 individuals. Flies were transferred into new vials every 2 days and the number of dead flies was counted. Survival data was plotted using Kaplan-Meier plot and compared between groups using log-rank test. For negative geotaxis behavior assay, 10 age-matched female flies were placed in a vial marked with a black line drawn horizontally 8 cm above the bottom. Flies were given 60 min to fully recover from CO2 anesthesia, and were gently tapped onto the bottom and given 10 s to climb. Flies that crossed the 8 cm line were counted. For each vial, this assay was repeated 10 times, and 10 independent vials of each group (a total 100 flies per group) were tested. To minimize observer-expectancy bias, this assay was performed with the examiner masked to the group assignment."}, "[4]": {"system": "Sodh2MB01265/MB01265 mutant flies", "experiment": "Age-dependent synaptic degeneration in the lamina (vacuoles, BRP immunostaining, confocal microscopy)", "format": "in vivo, Drosophila melanogaster", "procedure": "FIGS. 4A-G. Treatment with aldose reductase inhibitors Epalrestat and Ranirestat decrease sorbitol level and restore function. (FIG. 4A) Intracellular sorbitol level as measured by UPLC and normalised to protein content in fibroblasts from healthy controls (n=5, circle dots) and patients carrying biallelic nonsense mutations in SORD (n=5, square dots) after three days of treatment with Epalrestat 100 μM, Ranirestat 10 μM or DMSO. (FIG. 4B) Sorbitol level as measured by UPLC from brain/head homogenates and normalised to protein concentration from wild-type (yw, empty circle dots), Sodh2^MB01265/MB01265 (full circle dots) and neuron-specific knock-down of Sodh1 and […] (square dots) Drosophilae at 10 days after eggs enclosure. Sodh2 Mimic and Sodh1 and Soh2 RNAi Drosophilae were fed with either 80 μM Epalrestat, 80 μM Ranirestat or DMSO. The graphs show the mean±s.d. A two-tailed t-test was performed to compare sorbitol level. Statistical significance is indicated as *, ** or *** if P-value <0.05, <0.01 or <0.001, respectively, unless otherwise specified. All experiments were repeated independently twice with similar results. (FIG. 4C) Locomotor activity of control flies (yw) feeding with DMSO, Sodh2^MB01265/MB01265 flies feeding with DMSO, 80 μM Epalrestat, or 80 μM Ranirestat (n=10 in each group). Data are presented as mean±s.d. Statistical analysis was performed using Two-Way ANOVA followed by post-hoc Tukey's multiple comparison test. *P<0.05, ***P<0.001 (FIGS. 4D-4F) Laminae of Sodh2^MB01265/MB01265 homozygous flies at 10 DAE and 40 DAE fed with DMSO (FIG. 4D), 80 μM Epalrestat (FIG. 4E), or 80 μM Ranirestat (FIG. 4F). Arrowheads indicate the lamina vacuoles. Boxes indicate higher magnification areas of the lamina. The intensity of BRP is indicated. […] (FIG. 4G) Quantification of the vacuole number, size, and BRP intensity of (FIGS. 4D-4F). n=3. […]\nBrain dissection and staining were carried out as previously described (Brazill et al., J Vis Exp. 2018; (138)). […] Images were processed and analyzed using FluoView 10-ASW (Olympus)."}, "[5]": {"system": "Sodh2MB01265/MB01265 Drosophila", "experiment": "Sorbitol level in fly brain/head homogenates (UPLC)", "format": "in vivo, Drosophila melanogaster", "conditions": "Sodh2MB01265/MB01265 flies at 10 DAE; fed from 2 DAE, 80 μM / 80 μg/ml in food", "method": "(FIG. 4B) Sorbitol level as measured by UPLC from brain/head homogenates and normalised to protein concentration from wild-type (yw, empty circle dots), Sodh2^MB01265/MB01265 (full circle dots) and neuron-specific knock-down of Sodh1 and Sodh1 by RNAi (square dots) Drosophilae at 10 days after eggs enclosure. Sodh2 Mimic and Sodh1 and Soh2 RNAi Drosophilae were fed with either 80 μM Epalrestat, 80 μM Ranirestat or DMSO. The graphs show the mean±s.d. A two-tailed t-test was performed to compare sorbitol level. Statistical significance is indicated as *, ** or *** if P-value <0.05, <0.01 or <0.001, respectively, unless otherwise specified.\nLysate samples underwent protein precipitation with Acetonitrile (1:5), ten-time dilution with Acetonitrile-water (50/50) and clean up on Oasis HLB cartridges (10 mg/1 ml), before injection in UPLC (3 μL). UPLC conditions: column, BEH Amide 1.7 μm (2.1×100 mm) at 88° C., eluent A, Acetonitrile 90%-water 5%-Isopropanol 5%, eluent B, Acetonitrile 80%-water 20%, gradient elution 0 min., 100% A, 3.6 min. 100% B, flow rate, 0.45 ml/min. The retention time of sorbitol was 2.7 min. MS/MS conditions: interface, Electrospray interface in negative ion mode, Multiple Reaction Monitoring acquisition, m/z 180.9→88.9 (CV 24, CE 15).\nUnless specified, all flies were kept on cornmeal-molasses-yeast medium at 25° C., 65% humidity, with 12 h light/12 h dark cycles. […]"}, "[6]": {"system": "patient fibroblasts lacking functional SORD", "experiment": "Intracellular sorbitol level in patient fibroblasts (UPLC-MS/MS, normalised to protein content)", "format": "cell-based, human", "conditions": "72 hrs, Epalrestat 100 μM, Ranirestat 10 μM, vs DMSO", "method": "Asynchronous cell cultures were grown to approximately 80% confluency and treated with epalrestat (100 μM), ranirestat (10 μM) or DMSO for 72 hours. Media containing the drugs or DMSO were changed every 24 hours.\nSorbitol determination in human fibroblast lysates was performed in ultra-performance liquid chromatography-tandem mass spectrometry (UPLC-MS/MS) (Waters Acquity UPLC & TQD mass spectrometer—Waters, Milford, MA, USA). […] Lysate samples underwent protein precipitation with Acetonitrile (1:5), ten-time dilution with Acetonitrile-water (50/50) and clean up on Oasis HLB cartridges (10 mg/1 ml), before injection in UPLC (3 μL). UPLC conditions: column, BEH Amide 1.7 μm (2.1×100 mm) at 88° C., eluent A, Acetonitrile 90%-water 5%-Isopropanol 5%, eluent B, Acetonitrile 80%-water 20%, gradient elution 0 min., 100% A, 3.6 min. 100% B, flow rate, 0.45 ml/min. The retention time of sorbitol was 2.7 min.\nThe effect of two commercially available aldose reductase inhibitors (ARI), Epalrestat and Ranirestat, were tested on intracellular sorbitol accumulation in patient fibroblasts lacking functional SORD. Patient and control fibroblasts were grown for 72 hrs in the presence or absence of Epalrestat (100 μM) or Ranirestat (10 μM) and intracellular sorbitol levels were measured thereafter."}, "[7]": {"conditions": "Sodh2MB01265/MB01265 flies, at both 10 and 40 DAE, 80 μM in food"}}, "data": [{"compound": "AR 1A: antisense oligonucleotide (ASO) targeting aldose reductase (AKR1B1), SEQ ID NO: 22, GTTTAAGATCATCTCCACCT, modified backbone (modified backbone, type not given here)", "values": [{"measurement": "aldose reductase protein level (knock-down)", "setting": "[1]", "result": "Significant knock-down"}]}, {"compound": "O=C1C[C@@]2(C(=O)N1)C(=O)N(Cc1ccc(Br)cc1F)C(=O)c1cccn12", "note": "[Ranirestat]", "values": [{"measurement": "locomotor activity", "setting": "[2]", "result": "rescued to the levels of yw control flies"}, {"measurement": "locomotor activity", "setting": "[3]", "result": "rescued to the levels of yw control flies"}, {"measurement": "localization of synaptic cytomatrix protein BRP", "setting": "[4]; [7]", "result": "restored the localization of synaptic cytomatrix protein BRP"}, {"measurement": "number of lamina vacuoles", "setting": "[4]; [7]", "result": "reduced the number of vacuoles"}, {"measurement": "age-dependent synaptic defects", "setting": "[4]; Sodh2MB01265/MB01265 mutant flies, drug feeding", "result": "restored the age-dependent synaptic defects"}, {"measurement": "sorbitol level in fly heads", "setting": "[5]", "result": "significant reduction of sorbitol level"}, {"measurement": "intracellular sorbitol level", "setting": "[6]", "result": "significant reduction of sorbitol to a level comparable to controls"}]}]}
